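Results reflect a 48-hour exposure of cells in 96-well plates to compound at five concentrations. At the TGI there is no net growth.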
How the values were obtained:
Assay in all cases: NCI anticancer screen, dose series, 48 h
786-0 renal = test system: 786-0 renal
A549 NSCLC = test system: A549 NSCLC
ACHN renal = test system: ACHN renal
BT-549 breast = test system: BT-549 breast
CAKI-1 renal = test system: CAKI-1 renal
CCRF-CEM leukemia = test system: CCRF-CEM leukemia
COLO 205 colon = test system: COLO 205 colon
DU-145 prostate = test system: DU-145 prostate
EKVX NSCLC = test system: EKVX NSCLC
HCC-2998 colon = test system: HCC-2998 colon
HCT-116 colon = test system: HCT-116 colon
HCT-15 colon = test system: HCT-15 colon
HL-60(TB) leukemia = test system: HL-60(TB) leukemia
HOP-62 NSCLC = test system: HOP-62 NSCLC
HOP-92 NSCLC = test system: HOP-92 NSCLC
HS 578T breast = test system: HS 578T breast
HT29 colon = test system: HT29 colon
IGROV1 ovarian = test system: IGROV1 ovarian
KM12 colon = test system: KM12 colon
LOX IMVI melanoma = test system: LOX IMVI melanoma
M14 melanoma = test system: M14 melanoma
MALME-3M melanoma = test system: MALME-3M melanoma
MCF7 breast = test system: MCF7 breast
MDA-MB-231 breast = test system: MDA-MB-231 breast
MDA-MB-435 = test system: MDA-MB-435
MDA-N = test system: MDA-N
MOLT-4 leukemia = test system: MOLT-4 leukemia
NCI-H226 lung = test system: NCI-H226 lung
NCI-H23 lung = test system: NCI-H23 lung
NCI-H522 lung = test system: NCI-H522 lung
NCI/ADR-RES ovarian = test system: NCI/ADR-RES ovarian
OVCAR-3 ovarian = test system: OVCAR-3 ovarian
OVCAR-4 ovarian = test system: OVCAR-4 ovarian
OVCAR-5 ovarian = test system: OVCAR-5 ovarian
OVCAR-8 ovarian = test system: OVCAR-8 ovarian
PC-3 prostate = test system: PC-3 prostate
RPMI-8226 leukemia = test system: RPMI-8226 leukemia
RXF 393 renal = test system: RXF 393 renal
SF-268 CNS = test system: SF-268 CNS
SF-295 CNS = test system: SF-295 CNS
SF-539 CNS = test system: SF-539 CNS
SK-MEL-2 melanoma = test system: SK-MEL-2 melanoma
SK-MEL-28 melanoma = test system: SK-MEL-28 melanoma
SK-OV-3 ovarian = test system: SK-OV-3 ovarian
SN12C renal = test system: SN12C renal
SNB-19 CNS = test system: SNB-19 CNS
SNB-75 CNS = test system: SNB-75 CNS
SR leukemia = test system: SR leukemia
SW-620 colon = test system: SW-620 colon
T-47D breast = test system: T-47D breast
TK-10 renal = test system: TK-10 renal
U251 CNS = test system: U251 CNS
UACC-257 melanoma = test system: UACC-257 melanoma
UACC-62 melanoma = test system: UACC-62 melanoma
UO-31 renal = test system: UO-31 renal

Measured: TGI

O=C1NC(N2CCCCC2)=N/C1=C\c1ccccc1
> 100 µM: all assays above

Reference: PubChem BioAssay (NCI)
